From US5444174A, “16-membered macrolide derivative having sustained antibacterial activity in plasma, synthesis intermediate thereof and process for producing the same” (Meiji Seika Kaisha, Ltd., priority 1992, dated 1995)
In brackets after ≈: the same amount, converted by molar mass. Where two headings read alike, the source gives them in different places.

Legend:
[1] = test system: Sta. aureus MS15009/pMS98; test: Antibacterial activity (MIC), agar plate dilution method; format: cell-based; settings: Staphylococcus aureus, MS15009/PMS98, 20 h, read-out: Antibacterial activity (MIC)
Description: (§1) Antibacterial activities of the compounds of formula (I) are shown in Table 1 in terms of minimum inhibitory concentration (MIC).
(§2) Minimum inhibitory concentration was determined by the agar plate dilution method. Test strains were subjected to seed culture using Sensitivity test broth (STB, Nissui Pharmaceutical) except that the strains belonging to the genus Streptococcus, Branhamella and Haemophilus were cultured on blood agar plate. A 5 μl portion of cell suspension of the test strains having about 10^6 CFU/ml was inoculated into Sensitivity disk agar (SDA, Nissui Pharmaceutical) supplemented with 5% horse blood and incubated at 37° C. for 20 hours. Then, MIC was measured.

S. pneumoniae Type 1 = test: as above; format: cell-based; settings: Streptococcus pneumoniae, TYPE1, 37° C., 20 hours, blood agar seed culture
Description: as §1, §2

[2] = test system: Sta. epidermidis ATCC 14990; test: as above; format: cell-based; settings: Staphylococcus epidermidis, read-out: Antibacterial activity (MIC)
Description: as §1, §2

Sta. aureus M126 = test: as above; format: cell-based; settings: Staphylococcus aureus, 37° C., 20 hours
Description: as §1, §2

Sta. aureus M133 = test: as above; format: cell-based; settings: Staphylococcus aureus, read-out: Antibacterial activity (MIC)
Description: as §1, §2

E. coli NIHJ JC-2 = test: as above; format: cell-based; settings: Escherichia coli, NIHJJC2, 37° C., 20 hours
Description: as §1, §2

Sta. aureus MS15026 = test: as above; format: cell-based; settings: Staphylococcus aureus, 37° C., 20 hours
Description: as §1, §2

B. catarrhalis W-0506 = test: as above; format: cell-based; settings: Moraxella catarrhalis, read-out: Antibacterial activity (MIC)
Description: as §1, §2

K. pneumoniae PC1602 = test: as above; format: cell-based; settings: Klebsiella pneumoniae, 37° C., 20 hours
Description: as §1, §2

S. pneumoniae IP692 = test: as above; format: cell-based; settings: Streptococcus pneumoniae, 37° C., 20 hours, blood agar seed culture
Description: as §1, §2

H. influenza 9334 = test: as above; format: cell-based; settings: 37° C., 20 hours, blood agar seed culture
Description: as §1, §2

Sta. aureus 209P JC-1 = test: as above; format: cell-based; settings: Staphylococcus aureus, 37° C., 20 hours
Description: as §1, §2

[3] = test system: Sta. aureus MS15009/pMS99; test: as above; format: cell-based; settings: Staphylococcus aureus, MS15009/PMS99, 20 h, read-out: Antibacterial activity (MIC)
Description: as §1, §2

Sta. aureus MS15027 = test: as above; format: cell-based; settings: Staphylococcus aureus, read-out: Antibacterial activity (MIC)
Description: as §1, §2

M. luteus ATCC 9341 = test: as above; format: cell-based; settings: Micrococcus luteus, ATCC9341, 37° C., 20 hours
Description: as §1, §2

Ent. faecalis W-73 = test: as above; format: cell-based; settings: Enterococcus faecalis, W73, 37° C., 20 hours
Description: as §1, §2

B. catarrhalis W-0500 = test: as above; format: cell-based; settings: Moraxella catarrhalis, read-out: Antibacterial activity (MIC)
Description: as §1, §2

S. Pyogenes Cook = test: as above; format: cell-based; settings: Streptococcus pyogenes, 37° C., 20 hours, blood agar seed culture
Description: as §1, §2

M. luteus = format: in vitro ADME
Description: Changes in the antibacterial activities of miokamycin (MOM) and the compound (13) were measured in the following manner.
Each test compound and 50 μl of a methanol solution (10,000 γ) were added to 950 μl of thawed rat plasma and the resulting mixture was incubated at 37° C. A 20 μl portion of the mixture was sampled after 0, 1, 3, 6 and 24 hours and added to 980 μl of 0.05M phosphate buffer (pH 7.2). A 20 μl portion of the sample solution was used to measure antibacterial activity against M. luteus. Separately, the calibration curve was prepared by using a methanol solution containing each test compound. The starting activity of each compound in the plasma was referred to as 100%.

gram-positive bacteria = test: Antibacterial activities against gram-positive bacteria (summary of Table 1); format: cell-based; settings: in words
Description: as §1, §2

[4] = ATCC14990, 37° C., 20 hours, Sta. epidermidis ATCC 14990
[5] = 37° C., 20 hours, Sta. aureus M133
[6] = W0500, 37° C., 20 hours, blood agar seed culture, B. catarrhalis W-0500
[7] = W0506, 37° C., 20 hours, blood agar seed culture, B. catarrhalis W-0506
[8] = 37° C., 20 hours, Sta. aureus MS15027

Row | Compound | MIC [1] [µg/mL] | MIC (S. pneumoniae Type 1) [µg/mL] | MIC [2, 4] [µg/mL] | MIC (Sta. aureus M126) [µg/mL] | MIC (Sta. aureus M133; [5]) [µg/mL] | MIC (E. coli NIHJ JC-2) [µg/mL] | MIC (Sta. aureus MS15026) [µg/mL] | MIC (K. pneumoniae PC1602) [µg/mL] | MIC (S. pneumoniae IP692) [µg/mL] | MIC (H. influenza 9334) [µg/mL] | MIC (Sta. aureus 209P JC-1) [µg/mL] | MIC [3] [µg/mL] | MIC (Sta. aureus MS15027; MS15027, 20 h) [µg/mL] | MIC (M. luteus ATCC 9341) [µg/mL] | MIC (Ent. faecalis W-73) [µg/mL] | MIC (B. catarrhalis W-0500; [6]) [µg/mL] | MIC (S. Pyogenes Cook) [µg/mL] | MIC (B. catarrhalis W-0506; [7]) [µg/mL] | MIC (Sta. aureus MS15027; [8]) [µg/mL] | also measured
1 | CCO[C@H]1[C@H](C)O[C@@H](O[C@H]2[C@H](N(C)C)[C@@H](O)[C@H](O[C@H]3[C@@H](CC=O)C[C@@H](C)C(=O)/C=C/C=C/C[C@@H](C)OC(=O)C[C@@H](OC(=O)CC)[C@@H]3OC)O[C@@H]2C)C[C@@]1(C)OC [Compound (13)] | 6.25 (≈ 7.83 µM) | 1.56 (≈ 1.95 µM) | 12.5 (≈ 15.7 µM) | > 100 | 3.13 (≈ 3.92 µM) | > 100 | > 100 | > 100 | 1.56 (≈ 1.95 µM) | 100 (≈ 125 µM) | 3.13 (≈ 3.92 µM) | > 100 | 6.25 (≈ 7.83 µM) | 0.78 (≈ 0.977 µM) | 3.13 (≈ 3.92 µM) | 3.13 (≈ 3.92 µM) | 0.78 (≈ 0.977 µM) |  |  | MIC (B. catarrhalis W-0506; W0506, 20 h): 6.25 µg/mL (≈ 7.83 µM); antibacterial activity in rat plasma over time (M. luteus): antibacterial activity sustaining for a prolonged period of time in rat plasma; degree of the decrease in the antibacterial activity in plasma (M. luteus): clearly lower degree of the decrease in the antibacterial activity in plasma, compared with miokamycin; metabolism at the mycarose moiety in plasma (M. luteus): hardly metabolized at the mycarose moiety; antibacterial activities against gram-positive bacteria (gram-positive bacteria): have antibacterial activities against gram-positive bacteria
2 | C=CCO[C@H]1[C@H](C)O[C@@H](O[C@H]2[C@H](N(C)C)[C@@H](O)[C@H](O[C@H]3[C@@H](CC=O)C[C@@H](C)C(=O)/C=C/C=C/C[C@@H](C)OC(=O)C[C@@H](OC(=O)CC)[C@@H]3OC)O[C@@H]2C)C[C@@]1(C)OC [Compound (39)] | 12.5 (≈ 15.4 µM) | 1.56 (≈ 1.93 µM) | 25 (≈ 30.9 µM) | > 100 |  | > 100 | > 100 | > 100 | 1.56 (≈ 1.93 µM) |  | 3.13 (≈ 3.86 µM) | > 100 | 12.5 (≈ 15.4 µM) | 0.39 (≈ 0.481 µM) | 6.25 (≈ 7.72 µM) |  | 1.56 (≈ 1.93 µM) | 6.25 (≈ 7.72 µM) |  | MIC (Sta. aureus M133; M133, 20 h): 12.5 µg/mL (≈ 15.4 µM); MIC (B. catarrhalis W-0500; W0500, 20 h): 12.5 µg/mL (≈ 15.4 µM)
3 | CCC(=O)O[C@@H]1CC(=O)O[C@H](C)C/C=C/C=C/C(=O)[C@H](C)C[C@H](CC=O)[C@H](O[C@@H]2O[C@H](C)[C@@H](O[C@H]3C[C@@](C)(OC)[C@@H](OCC=C(C)C)[C@H](C)O3)[C@H](N(C)C)[C@H]2O)[C@H]1OC [Compound (40)] | 0.78 (≈ 0.931 µM) | 0.39 (≈ 0.465 µM) | 3.13 (≈ 3.73 µM) | > 100 | 1.56 (≈ 1.86 µM) | > 100 | > 100 | > 100 | 0.39 (≈ 0.465 µM) | 12.5 (≈ 14.9 µM) | 0.78 (≈ 0.931 µM) | > 100 |  | 0.1 (≈ 0.119 µM) | 3.13 (≈ 3.73 µM) | 1.56 (≈ 1.86 µM) | 0.2 (≈ 0.239 µM) | 1.56 (≈ 1.86 µM) | 1.56 (≈ 1.86 µM) | 
4 | CCCCO[C@H]1[C@H](C)O[C@@H](O[C@H]2[C@H](N(C)C)[C@@H](O)[C@H](O[C@H]3[C@@H](CC=O)C[C@@H](C)C(=O)/C=C/C=C/C[C@@H](C)OC(=O)C[C@@H](OC(=O)CC)[C@@H]3OC)O[C@@H]2C)C[C@@]1(C)OC [Compound (41)] | 0.39 (≈ 0.472 µM) | 0.2 (≈ 0.242 µM) | 1.56 (≈ 1.89 µM) | > 100 | 0.78 (≈ 0.944 µM) | > 100 | > 100 | > 100 | 0.1 (≈ 0.121 µM) | 6.25 (≈ 7.57 µM) | 0.2 (≈ 0.242 µM) | > 100 |  | 0.05 (≈ 0.0605 µM) | 3.13 (≈ 3.79 µM) | 0.78 (≈ 0.944 µM) | 0.1 (≈ 0.121 µM) | 0.78 (≈ 0.944 µM) | 0.78 (≈ 0.944 µM) | antibacterial activities compared with miokamycin (gram-positive bacteria; vs miokamycin): excellent antibacterial activities exceeding that of miokamycin
5 | CCCCCCO[C@H]1[C@H](C)O[C@@H](O[C@H]2[C@H](N(C)C)[C@@H](O)[C@H](O[C@H]3[C@@H](CC=O)C[C@@H](C)C(=O)/C=C/C=C/C[C@@H](C)OC(=O)C[C@@H](OC(=O)CC)[C@@H]3OC)O[C@@H]2C)C[C@@]1(C)OC [Compound (42)] | 1.56 (≈ 1.83 µM) | 0.2 (≈ 0.234 µM) |  | > 100 |  | > 100 | > 100 | > 100 | 0.2 (≈ 0.234 µM) | 12.5 (≈ 14.6 µM) | 0.78 (≈ 0.913 µM) | > 100 | 1.56 (≈ 1.83 µM) | 0.1 (≈ 0.117 µM) | 6.25 (≈ 7.32 µM) |  | 0.2 (≈ 0.234 µM) |  |  | MIC ([2]; ATCC14990, 20 h): 1.56 µg/mL (≈ 1.83 µM); MIC (Sta. aureus M133; M133, 20 h): 1.56 µg/mL (≈ 1.83 µM); MIC (B. catarrhalis W-0506; W0506, 20 h): 1.56 µg/mL (≈ 1.83 µM); MIC (B. catarrhalis W-0500; W0500, 20 h): 1.56 µg/mL (≈ 1.83 µM)
6 | CCC(=O)O[C@@H]1CC(=O)O[C@H](C)C/C=C/C=C/C(=O)[C@H](C)C[C@H](CC=O)[C@H](O[C@@H]2O[C@H](C)[C@@H](O[C@H]3C[C@@](C)(OC)[C@@H](OCCCC(C)C)[C@H](C)O3)[C@H](N(C)C)[C@H]2O)[C@H]1OC [Compound (43)] | 0.78 (≈ 0.913 µM) | 0.2 (≈ 0.234 µM) | 1.56 (≈ 1.83 µM) | > 100 | 1.56 (≈ 1.83 µM) | > 100 | > 100 | > 100 | 0.2 (≈ 0.234 µM) | 12.5 (≈ 14.6 µM) | 0.39 (≈ 0.457 µM) | > 100 |  | 0.05 (≈ 0.0585 µM) | 3.13 (≈ 3.66 µM) | 1.56 (≈ 1.83 µM) | 0.05 (≈ 0.0585 µM) | 1.56 (≈ 1.83 µM) | 1.56 (≈ 1.83 µM) | 
7 | CCC(=O)O[C@@H]1CC(=O)O[C@H](C)C/C=C/C=C/C(=O)[C@H](C)C[C@H](CC=O)[C@H](O[C@@H]2O[C@H](C)[C@@H](O[C@H]3C[C@@](C)(OC)[C@@H](OCc4ccccc4)[C@H](C)O3)[C@H](N(C)C)[C@H]2O)[C@H]1OC [Compound (44)] | 0.78 (≈ 0.907 µM) | 0.2 (≈ 0.233 µM) | 3.13 (≈ 3.64 µM) | > 100 | 1.56 (≈ 1.81 µM) | > 100 | > 100 | > 100 | 0.2 (≈ 0.233 µM) | 6.25 (≈ 7.27 µM) | 0.2 (≈ 0.233 µM) | > 100 |  | 0.1 (≈ 0.116 µM) | 1.56 (≈ 1.81 µM) | 1.56 (≈ 1.81 µM) | 0.2 (≈ 0.233 µM) | 1.56 (≈ 1.81 µM) | 1.56 (≈ 1.81 µM) | 
